From PubChem BioAssay AID1348 (Sanford-Burnham Center for Chemical Genomics, 2008)
The source made the active and inactive calls.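 How the source made its calls: active means cell survival above 50% at 25 µM despite a drug that triggers cell death; inactive means the rest.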

These compounds were tested on CSM14.1 staurosporine-induced death rescue, ATPlite, 24 h (assay: protection against staurosporine-triggered CSM14.1 death, SAR follow-up, selectivity assay for ER stress death inhibitor project, cell-based, undifferentiated CSM14.1, ATP luminescence (AID 1348)). Conditions: at 25 µM; hits give high values.

Row | SMILES | survival
1 | COc1ccc(C2CC(=O)C3=C(C2)Nc2ccccc2NC3c2cccc(Oc3ccccc3)c2)cc1OC (stereo unspecified) | 11% (inactive)
2 | COc1ccc(C2CC(=O)C3=C(C2)Nc2ccccc2NC3c2cccc(Br)c2)cc1OC (stereo unspecified) | 10% (inactive)
3 | COc1ccc(C2CC(=O)C3=C(C2)Nc2ccccc2NC3c2cccc(C(F)(F)F)c2)cc1OC (stereo unspecified) | 10% (inactive)
4 | COc1ccc(C2CC(=O)C3=C(C2)Nc2ccccc2NC3c2cc(C)ccc2C)cc1 (stereo unspecified) | 9% (inactive)
5 | CCOc1cccc(C2Nc3ccccc3NC3=C2C(=O)CC(c2ccc(OC)cc2)C3)c1 (stereo unspecified) | 8% (inactive)
6 | CSc1ccc(C2Nc3ccccc3NC3=C2C(=O)CC(c2ccccc2)C3)cc1 (stereo unspecified) | 8% (inactive)
7 | CCOc1cc(C2Nc3ccccc3NC3=C2C(=O)CC(c2ccc(OC)cc2)C3)cc(Cl)c1O (stereo unspecified) | 9% (inactive)
8 | CCCOc1ccc(C2Nc3ccccc3NC3=C2C(=O)CC(c2ccc(OC)c(OC)c2)C3)cc1 (stereo unspecified) | 12% (inactive)
9 | CC1(C)CC(=O)C2=C(C1)Nc1ccccc1NC2c1ccc(-c2ccccc2)cc1 (stereo unspecified) | 13% (inactive)
10 | O=C1CC(c2ccccc2)CC2=C1C(c1c(F)cccc1Cl)Nc1ccccc1N2 (stereo unspecified) | 8% (inactive)
11 | COc1ccc(C2CC(=O)C3=C(C2)Nc2ccccc2NC3c2ccccc2C(F)(F)F)cc1OC (stereo unspecified) | 6% (inactive)
